{"source": "patent US20250127723A1", "about": "“PHARMACEUTICAL COMPOSITION COMPRISING LARGE PHYSIOLOGICALLY ACTIVE SUBSTANCE AND EXCIPIENT” (priority 2021, published 2025)", "key": {"[1]": {"assay": "Body weight change 24 hours after single oral administration of amylin derivatives", "type": "in vivo", "conditions": "mice, bile acid absorption accelerator formulation", "protocol": "After a single oral administration of a formulation using a combination of a large physiologically active substance and excipients to mice, body weight changes were confirmed for 24 hours."}, "Caco-2 cell monolayer [2]": {"test_system": "Caco-2 cell monolayer", "type": "in vitro ADME", "protocol": "Using the Caco-2 cell monolayer, changes in the permeability of markers for each permeation pathway due to excipients were evaluated using the following method. First, to form a Caco-2 cell monolayer, 1.5×10^5 cells per well were dispensed in a 12-Transwell plate and cultured for 3 to 4 weeks under 37° C. CO2 conditions. For the first week, the culture medium was changed once every two days, and thereafter, the culture medium was changed every three days. In the experiment, samples between 3 and 4 weeks after seeding were used. To verify the formation of a cell monolayer, TEER values and Lucifer yellow values were measured, and only cell monolayer membranes having a TEER value of 300 Ω·cm^2 or more and a measured transmittance of Lucifer yellow within 3% were used in the test. After the Transwells to be used for each test were washed using transport media (HBSS) and incubated in a 37° C. CO2 incubator for 1 hour, 500 μL of bile acid derivatives and permeability marker were added to the apical side, and 1.5 mL of drug-free transport media was treated onto the basolateral side, and incubation was performed for 2 hours in a 37° C. CO2 incubator thereafter. At this time, fluorescein isothiocyanate-dextran (FD4) was used as a paracellular marker, and metoprolol was used as a transcellular marker to confirm the change in permeability coefficient according to bile acid derivative treatment. […]"}, "Caco-2 cell monolayer [3]": {"test_system": "Caco-2 cell monolayer", "type": "in vitro ADME", "protocol": "First, to form a Caco-2 cell monolayer, 1.5×10^5 cells per well were dispensed in a 12-Transwell plate and this was cultured for 3 to 4 weeks under 37° C. CO2 conditions. For the first week, the culture medium was changed once every two days, and thereafter, the culture medium was changed every three days. In the experiment, samples between 3 and 4 weeks after seeding were used. To verify the formation of a cell monolayer, TEER values and Lucifer yellow values were measured; only cell monolayer membranes having a TEER value of 300 Ω·cm^2 or more and a measured transmittance of Lucifer yellow within 3% were used in the test. After washing the Transwell to be used for each test using transport media (HBSS), incubation was performed for 1 hour in a 37° C. CO2 incubator; then, 500 μL each of large physiologically active substance (50 μM) and bile acid derivatives (100 μM) were added to the apical side, and 1.5 mL of drug-free transport media was treated onto the basolateral side. Subsequently, incubation was performed for 2 hours in a 37° C. CO2 incubator.\n[formula] • (*dCr-concentration of the permeated sample, dt-drug treatment time, Vr-basolateral volume, A-Transwell area, C0-initial applied drug concentration)", "remark": "listed apart in the source"}, "Caco-2 cells": {"test_system": "Caco-2 cells", "protocol": "The cytotoxicity of excipients was evaluated using Caco-2 cells using the following method. First, to check the amount of intracellular accumulation, Caco-2 cells were distributed in a 96-well plate at 1×10^5 per well and cultured in a CO2 incubator at a temperature of 37° C. The culture solution from each well is removed and replacement by a new culture medium is performed. After that, […] of the prepared excipient was added and this was cultured in a CO2 incubator at 37° C. After 2 hours, each well was treated with 100 µL of luciferase reagent (Promega, #G7571) and incubated at room temperature. After 10 minutes, the luminescence value of each well was measured. […] [formula]"}, "[4]": {"assay": "Cmax after duodenal administration of Compounds 23 and 24", "set-up": "species or system experimental rats", "conditions": "rat, in vivo; rats, duodenum; CDC 68 mg/kg, PG 34 mg/kg; Compound 23 5.4 mg/kg, Compound 24 6.2 mg/kg", "protocol": "A large physiologically active substance (Compound 24) was formulated by dissolving it in the corresponding vehicle (0.02% polysorbate 80 in 10 mM PBS (pH 7.4)) with the excipient composition shown in Table 6 above. After administering the above formulation to the duodenum of experimental rats, Cmax was compared. The corresponding results were compared with the results obtained by administering Compound 23, a large physiologically active substance without a biotin moiety, in the same formulation, and are shown in Table 7 below."}, "[5]": {"test_system": "monolayer membrane of Caco-2 cells", "assay": "Tight junction openness by change in TEER value, Caco-2 monolayer", "type": "cell-based", "conditions": "apical treatment, 0-120 min, FIG. 2", "protocol": "First, to form a Caco-2 cell monolayer, 1.5×10^5 cells per well was dispensed in a 12-Transwell plate and cultured for 3 to 4 weeks under 37° C. CO2 conditions. For the first week, the culture medium was changed once every two days, and thereafter, the culture medium was changed every three days. In the experiment, samples between 3 and 4 weeks after seeding were used. To evaluate the degree of damage to the Caco-2 cell monolayer by excipients, the degree of cells cultured as a monolayer on a semi-permeable membrane was measured by the difference in electrical resistance between the apical side and the basolateral side. First, the Transwell to be used in each test is washed using a washing buffer (HBSS), replaced by culture medium, and equilibrated in a 37° C. CO2 incubator for 15 minutes. After adding 500 μL of the prepared excipient to the apical side and treating the basolateral side with 1.5 mL of culture medium containing no excipient, changes in TEER values were measured using a Millicell ERS-2 Voltohmmeter at each time point (0, 5, 15, 30, 45, 60, 90, 120 min) from the time of treatment."}, "[6]": {"assay": "Weight loss, appetite suppression and anti-diabetic efficacy, oral Compound 17 formulation in obese mice", "type": "in vivo, mice (C57BL/6)", "conditions": "high-fat diet obese C57BL/6 mice; Compound 17 300 to 1000 nmol/kg oral daily 3 weeks; CDC 6.8, UDC 13.6, PG 13.6 mg/mL; FIGS. 11 to 13", "protocol": "After oral administration of a formulation containing a large physiologically active substance (Compound 17) and excipients to mice, changes in mouse body weight and anti-diabetic efficacy were confirmed. Specifically, the administered dose of Compound 17 used 300 to 1000 nmol/kg, and the excipient concentrations in the administered formulation used CDC 6.8 mg/mL, UDC 13.6 mg/mL, and PG 13.6 mg/mL. The vehicle used 0.02% polysorbate 80 in 10 mM PBS (pH 7.4). Obese mice were induced by feeding high-fat diet to 6-week-old male mice (C57BL/6) for 16 weeks; then weight changes were confirmed by oral administration of the GLP-1/Glucagon receptor dual agonist (Compound 17), which combines biotin and fatty acid moieties, every day for 3 weeks using a bile acid absorption accelerator formulation."}}, "note": "Counter-ions that a name gives are not always drawn. Bridge positions count the residues as written; N and C are the ends. Square brackets hold non-standard residues; d marks the D form. Side chains are listed from the residue outwards. Ends that are not written are not given here. Lys‑B1 = not defined here; EG2 = not defined here; Aib = CC(C)(N)C(=O)O", "data": [{"compound": "26: Amylin, SEQ No. 14: KCNTATCATQRLANFLVHSSNNFGPILPPTNVGSNTY; K1: Lys-B1 (K*) ([Lys‑B1]CNTATCATQRLANFLVHSSNNFGPILPPTNVGSNTY; ends and bridges not checked) [Compound 26]", "values": [{"measurement": "body weight change after 24 hours", "setting": "[1]", "result": "weight loss was confirmed"}]}, {"compound": "27: Amylin, SEQ No. 14: KCNTATCATQRLANFLVHSSNNFGPILPPTNVGSNTY; K1: αLys-EG2-Glu-C18 (*K); K1: Lys-B1 (K*) ({C18-Glu-EG2}-[Lys‑B1]CNTATCATQRLANFLVHSSNNFGPILPPTNVGSNTY; not fully specified; ends and bridges not checked) [Compound 27]", "values": [{"measurement": "body weight change after 24 hours", "setting": "[1]", "result": "weight loss was confirmed"}]}, {"compound": "29: Amylin, SEQ No. 15: KCNTATCATQRLADFLRHSSPNFGAIPSSTNVGSRTY; K1: Lys-B1 (K*) ([Lys‑B1]CNTATCATQRLADFLRHSSPNFGAIPSSTNVGSRTY; ends and bridges not checked) [Compound 29]", "values": [{"measurement": "body weight change after 24 hours", "setting": "[1]", "result": "weight loss was confirmed"}]}, {"compound": "30: Amylin, SEQ No. 15: KCNTATCATQRLADFLRHSSPNFGAIPSSTNVGSRTY; K1: αLys-EG2-Glu-C18 (*K); K1: Lys-B1 (K*) ({C18-Glu-EG2}-[Lys‑B1]CNTATCATQRLADFLRHSSPNFGAIPSSTNVGSRTY; not fully specified; ends and bridges not checked) [Compound 30]", "values": [{"measurement": "body weight change after 24 hours", "setting": "[1]", "result": "weight loss was confirmed"}]}, {"compound": "32: Amylin, SEQ No. 16: KCNTATCATQRLADFLRHSSNNFGAIPSSTNVGSRTY; K1: Lys-B1 (K*) ([Lys‑B1]CNTATCATQRLADFLRHSSNNFGAIPSSTNVGSRTY; ends and bridges not checked) [Compound 32]", "values": [{"measurement": "body weight change after 24 hours", "setting": "[1]", "result": "weight loss was confirmed"}]}, {"compound": "33: Amylin, SEQ No. 16: KCNTATCATQRLADFLRHSSNNFGAIPSSTNVGSRTY; K1: αLys-EG2-Glu-C18 (*K); K1: Lys-B1 (K*) ({C18-Glu-EG2}-[Lys‑B1]CNTATCATQRLADFLRHSSNNFGAIPSSTNVGSRTY; not fully specified; ends and bridges not checked) [Compound 33]", "values": [{"measurement": "body weight change after 24 hours", "setting": "[1]", "result": "weight loss was confirmed"}]}, {"compound": "35: Amylin, SEQ No. 17: RCNTATCATQRLADFLRHSSNNFGAIPSSTNVGSKTY; K35: Lys-B1 (K*) (RCNTATCATQRLADFLRHSSNNFGAIPSSTNVGS[Lys‑B1]TY; ends and bridges not checked) [Compound 35]", "values": [{"measurement": "body weight change after 24 hours", "setting": "[1]", "result": "weight loss was confirmed"}]}, {"compound": "36: Amylin, SEQ No. 17: RCNTATCATQRLADFLRHSSNNFGAIPSSTNVGSKTY; R1: αArg-EG2-Glu-C18 (*R); K35: Lys-B1 (K*) ({C18-Glu-EG2}-RCNTATCATQRLADFLRHSSNNFGAIPSSTNVGSKTY; not fully specified (some residues); ends and bridges not checked) [Compound 36]", "values": [{"measurement": "body weight change after 24 hours", "setting": "[1]", "result": "weight loss was confirmed"}]}, {"compound": "C[C@H](CCC(=O)O)[C@H]1CC[C@H]2[C@@H]3[C@H](O)C[C@@H]4C[C@H](O)CC[C@]4(C)[C@H]3CC[C@]12C", "note": "[CDC, Chenodeoxycholic acid or its salt]", "values": [{"measurement": "effect on paracellular (FD4) and transcellular (metoprolol) transport", "setting": "Caco-2 cell monolayer [2]", "result": "promotes both paracellular transport and transcellular transport"}, {"measurement": "effect of improving the permeability of large physiologically active substances", "setting": "Caco-2 cell monolayer [3]", "result": "had an effect of improving the permeability"}, {"measurement": "cytotoxicity (cell viability)", "setting": "Caco-2 cells", "result": "similar"}]}, {"compound": "CC[C@H](C)[C@H](NC(=O)[C@H](CCC(=O)O)NC(=O)[C@H](CO)NC(=O)[C@@H](NC(=O)[C@@H](N)CO)C(C)C)C(=O)N[C@@H](CCC(N)=O)C(=O)N[C@@H](CC(C)C)C(=O)N[C@@H](CCSC)C(=O)N[C@@H](Cc1cnc[nH]1)C(=O)N[C@@H](CC(N)=O)C(=O)N[C@@H](CC(C)C)C(=O)NCC(=O)N[C@@H](CCCCN)C(=O)N[C@@H](Cc1cnc[nH]1)C(=O)N[C@@H](CC(C)C)C(=O)N[C@@H](CC(N)=O)C(=O)N[C@@H](CO)C(=O)N[C@@H](CCSC)C(=O)N[C@@H](CCC(=O)O)C(=O)N[C@@H](CCCN=C(N)N)C(=O)N[C@H](C(=O)N[C@@H](CCC(=O)O)C(=O)N[C@@H](Cc1c[nH]c2ccccc12)C(=O)N[C@@H](CC(C)C)C(=O)N[C@@H](CCCN=C(N)N)C(=O)N[C@@H](CCCCN)C(=O)N[C@@H](CCCCN)C(=O)N[C@@H](CC(C)C)C(=O)N[C@@H](CCC(N)=O)C(=O)N[C@@H](CC(=O)O)C(=O)N[C@H](C(=O)N[C@@H](Cc1cnc[nH]1)C(=O)N[C@@H](CC(N)=O)C(=O)N[C@@H](Cc1ccccc1)C(=O)O)C(C)C)C(C)C", "note": "[Compound 23]", "values": [{"measurement": "Cmax", "setting": "[4]", "result": 30, "unit": "ng/mL"}]}, {"compound": "C[C@H](CCC(=O)O)[C@H]1CC[C@H]2[C@@H]3CC[C@@H]4C[C@H](O)CC[C@]4(C)[C@H]3C[C@H](O)[C@]12C", "note": "[DC, Deoxycholic acid or its salt]", "values": [{"measurement": "cytotoxicity (cell viability)", "setting": "Caco-2 cells", "result": "similar"}]}, {"compound": "CCCOC(=O)c1cc(O)c(O)c(O)c1", "note": "[PG, Propyl gallate]", "values": [{"measurement": "tight junction openness according to the change in TEER value", "setting": "[5]", "result": "non-tight junction openness"}]}, {"compound": "C[C@H](CCC(=O)O)[C@H]1CC[C@H]2[C@@H]3[C@@H](O)C[C@@H]4C[C@H](O)CC[C@]4(C)[C@H]3CC[C@]12C", "note": "[UDC, Ursodeoxycholic acid or its salt]", "values": [{"measurement": "effect on paracellular (FD4) and transcellular (metoprolol) transport", "setting": "Caco-2 cell monolayer [2]", "result": "no enhancing effect on the two transport mechanisms"}, {"measurement": "tight junction openness according to the change in TEER value", "setting": "[5]", "result": "non-tight junction openness"}, {"measurement": "cytotoxicity (cell viability)", "setting": "Caco-2 cells", "result": "least cytotoxicity"}]}, {"compound": "Compound 17: GLP-1/GCGRA, SEQ No. 8: H-Aib-QGTFTSDYSKYLDEQAAKEFVQWLMNTK; (Lactam) between E16 and K20; K12: Lys-B1 (K*); K30: Lys-EG2-Glu-C18 (K*) (H-H[Aib]QGTFTSDYSKYLDEQAAKEFVQWLMNTK([EG2-Glu-C18]); lactam 16-20; not fully specified (residue 12); reading uncertain)", "values": [{"measurement": "anti-diabetic efficacy", "setting": "[6]", "result": "anti-diabetic effect"}, {"measurement": "body weight change", "setting": "[6]", "result": "weight loss"}, {"measurement": "feed intake", "setting": "[6]", "result": "reduction of feed intake"}]}]}
